The values that follow come from patent US8283375B2, “2, 6 xylidine derivatives for the treatment of pain” (Krisani Biosciences (P) Ltd., priority 2011, dated 2012).

This assay concerns spinal nerve ligation model for neuropathic pain in rats. The assay can be described thus: Von Frey test for mechanical allodynia in Chung spinal nerve (L5-L6) ligation model. Format: in vivo, SD rats. The settings on record: 150 mg/kg; for analgesic efficacy on mechanical allodynia compared to Vehicle (conclusion in words): b105: 2 and 4.5 hours post-treatment on day 14 and 4.5 hours on day 21, b109: 2 hours post-treatment on days 14 and 21. From the text:
Experimental animals were male SD rats with a starting weight of 230-250 grams. Total number of animals were n=90 for surgery and n=60 after selection. The animals were caged in groups of 3 in a temperature and humidity controlled area. They were maintained on a 12 hr light/dark cycle and had ad libitum access to food and water.
Neuropathic pain inducement was done by following principles of Chung induced model. The SD rats were anesthetized using ketamine/xylazine sodium. The rats were shaved and placed in prone position for surgery. The L5-L6 spinal nerves were surgically litigated. The rats were returned to their cages for recuperation and recovery under comfortable warm conditions using heat lamps.
After seven days of surgery a pre selection was performed. Animals that indicate signs of post operative pain were to be selected to proceed. Pain is detected by observing when one or more of the criteria are met as follows. Licking of the operated paw, accompanied by gentle biting or pulling on the nails with the mouth; placing the leg in the air; bearing weight on the side contra-lateral to the nerve injury; deformities of the hind paw and abnormal posture and walking; weakness of the left hind paw. […] However, the animal must be able to move its leg to ensure that the L4 spinal nerve is intact. If the animal cannot move its leg, it was excluded from the study.
Second level of selection of the rats was done on day 14 after the surgery. Von Frey test was performed on the preselected rats after day 7 on day 14. Using Von Frey methodology, animals with a pain threshold of ≦26 g for the operated leg will be included in the study. After this selection step, the animals were randomly placed into their experimental groups.
Blank, positive control and test compound: Blank was just the medium used for dissolving other compounds. The positive control was Gabapentin and the test compound was the final compound of formula 1 discussed in the instant disclosure. Three types of experimental groups were formed. Different types of chemicals such as Vehicle and Control were used to determine the efficacy of the chemicals as well comparison of the instant disclosed compound of formula 1, with a positive control was performed. The final compound of the instant disclosure was administered at 100 mg/kg and 150 mg/kg body weight as two different groups. The Gabapentin was administered at 150 mg/kg body weight.
On day 14 blank compound and final compound will be administered once daily starting on study day 14 through study day 21. Gabapentin, the positive control, will be administered 2 hours prior to pain testing on study days 14 and 21. […]
Pain Response Evaluation: Pain response was evaluated using Von Frey test for mechanical allodynia. […]

In the case of `NCC1(CC(=O)O)CCCCC1` [Gabapentin, reference compound], the “duration of analgesic activity / activity compared with gabapentin (in words)” value was “active only at 2 hours post dosing”.

For `CCN(CCOC(=O)CCCCC1CCSS1)CC(=O)Nc1c(C)cccc1C` (stereo not shown) [KRB-5b], the “duration of analgesic activity / activity compared with gabapentin (in words)” value is “prolonged analgesic activity compared to gabapentin” and the “analgesic efficacy on mechanical allodynia compared to Vehicle (conclusion in words)” value is on record as “effective as a pain analgesic item”. For the same compound, the “analgesic efficacy on mechanical allodynia compared to Vehicle (conclusion in words)” value (listed as compound of formula 1) is given as “effective in treating the spinal nerve ligation model for neuropathic pain in rats”.
